Reference: EP2607478A1, “Phenanthroline treated MSC” (Universiteit Twente, priority 2011, dated 2013)

Tested on: MSCs
Experiment: Whole genome expression analysis (Illumina microarray) of treated MSCs
Format: cell-based, Human
Conditions: DFO versus Bas
Protocol: MSCs were seeded in T25 flasks at 5000 cells/cm^2 and allowed to attach overnight in proliferation medium. […] After 48 hours, RNA was isolated as described above. From 500 ng of RNA, cRNA was synthesized using the Illumina TotalPrep RNA amplification Kit (Ambion), according to the manufacturer's protocol and the quality of RNA and cRNA was verified on a Bioanalyzer 2100 (Agilent). Microarrays were performed using Illumina HT-12 v4 expression Beadchips, according to the manufacturer's protocol. Briefly, 750 ng of cRNA was hybridized on the array overnight after which the array was washed and blocked. Then, by addition of streptavidin Cy-3 a fluorescent signal was developed. Arrays were scanned on an Illumina iScan reader and raw intensity values were background corrected in GenomeStudio (Illumina). Further data processing and statistical testing were performed with R and Bioconductor statistical software (www.bioconductor.org), using package lumi. Raw intensity values were transformed using variance stabilization and a quantile normalization was performed. A linear modelling approach with empirical Bayesian methods, as implemented in Limma package (54), was applied for differential expression analysis of the resulting probe-level expression values. A gene list, containing only those genes with an absolute 1.5-fold change between different treatments, was uploaded to Ingenuity Pathway Analysis (IPA) software and used for core analysis. Pathways or networks with a p-value of 0.05 were considered statistically significant.

## CC(=O)N(O)CCCCCNC(=O)CCC(=O)N(O)CCCCCNC(=O)CCC(=O)N(O)CCCCCN [DFO, reference compound]
ProbeID ILMN_1699644
  logFC(D142_ DFO - D142_BAS): 2,52
ProbeID ILMN_1699772
  logFC(D142_ DFO - D142_BAS) RRAGD: 2,43
ProbeID ILMN_1700268
  logFC(D142_ DFO - D142_BAS) QPRT: -2,44
ProbeID ILMN_1702363
  logFC(D142_ DFO - D142_BAS) SULF1: -2,42
ProbeID ILMN_1704154
  logFC(D142_ DFO - D142_BAS) TNFRSF19: -2,00
ProbeID ILMN_1704446
  logFC(D142_ DFO - D142_BAS) SLC6A10P: 2,82
ProbeID ILMN_1704537
  logFC(D142_ DFO - D142_BAS) PHGDH: 2,18
ProbeID ILMN_1707727
  logFC(D142_ DFO - D142_BAS) ANGPTL4: 6,19
ProbeID ILMN_1714108
  logFC(D142_ DFO - D142_BAS) TP53INP1: 2,66
ProbeID ILMN_1715508
  logFC(D142_ DFO - D142_BAS) NNMT: -2,16
ProbeID ILMN_1716608
  logFC(D142_ DFO - D142_BAS) NGF: 2,73
ProbeID ILMN_1718866
  logFC(D142_ DFO - D142_BAS) C5orf46: 2,59
ProbeID ILMN_1718961
  logFC(D142_ DFO - D142_BAS) BNIP3L: 2,24
ProbeID ILMN_1720373
  logFC(D142_ DFO - D142_BAS) SLC7A5: 3,21
ProbeID ILMN_1722532
  logFC(D142_ DFO - D142_BAS) JMJD1A: 2,13
ProbeID ILMN_1723486
  logFC(D142_ DFO - D142_BAS) HK2: 2,21
ProbeID ILMN_1724658
  logFC(D142_ DFO - D142_BAS) BNIP3: 3,37
ProbeID ILMN_1725090
  logFC(D142_ DFO - D142_BAS) CTHRC1: -2,13
ProbeID ILMN_1725139
  logFC(D142_ DFO - D142_BAS) CA9: 3,31
ProbeID ILMN_1726456
  logFC(D142_ DFO - D142_BAS) SLC3A2: 2,31
ProbeID ILMN_1727532
  logFC(D142_ DFO - D142_BAS) OLFML3: -2,91
ProbeID ILMN_1728934
  logFC(D142_ DFO - D142_BAS) PRC1: -2,66
ProbeID ILMN_1733094
  logFC(D142_ DFO - D142_BAS) STEAP1: -2,15
ProbeID ILMN_1733756
  logFC(D142_ DFO - D142_BAS) COL12A1: -2,56
ProbeID ILMN_1736670
  logFC(D142_ DFO - D142_BAS) PPP1R3C: 2,33
ProbeID ILMN_1738116
  logFC(D142_ DFO - D142_BAS) TMEM119: -3,83
ProbeID ILMN_1738407
  logFC(D142_ DFO - D142_BAS) ULBP1: 2,07
ProbeID ILMN_1738742
  logFC(D142_ DFO - D142_BAS) PLAT: 2,03
ProbeID ILMN_1742981
  logFC(D142_ DFO - D142_BAS) TUBA1A: -2,06
ProbeID ILMN_1743199
  logFC(D142_ DFO - D142_BAS) EGR2: 2,34
ProbeID ILMN_1744487
  logFC(D142_ DFO - D142_BAS) C1QTNF5: -2,69
ProbeID ILMN_1744963
  logFC(D142_ DFO - D142_BAS) ERO1L: 3,58
ProbeID ILMN_1747016
  logFC(D142_ DFO - D142_BAS) CEP55: -2,32
ProbeID ILMN_1749892
  logFC(D142_ DFO - D142_BAS) EGLN1: 2,28
ProbeID ILMN_1750324
  logFC(D142_ DFO - D142_BAS) IGFBP5: 2,71
ProbeID ILMN_1751598
  logFC(D142_ DFO - D142_BAS) SESN2: 2,18
ProbeID ILMN_1755749
  logFC(D142_ DFO - D142_BAS) PGK1: 2,16
ProbeID ILMN_1755974
  logFC(D142_ DFO - D142_BAS) ALDOC: 2,33
ProbeID ILMN_1756417
  logFC(D142_ DFO - D142_BAS) ANKRD37: 3,40
ProbeID ILMN_1756572
  logFC(D142_ DFO - D142_BAS) COQ2: -2,03
ProbeID ILMN_1756573
  logFC(D142_ DFO - D142_BAS) NDUFA4L2: 5,66
ProbeID ILMN_1758164
  logFC(D142_ DFO - D142_BAS) STC1: 3,77
ProbeID ILMN_1758623
  logFC(D142_ DFO - D142_BAS) HIST1H2BD: 2,40
ProbeID ILMN_1758672
  logFC(D142_ DFO - D142_BAS) FAM107B: 2,18
ProbeID ILMN_1761281
  logFC(D142_ DFO - D142_BAS) LOC441019: 2,16
ProbeID ILMN_1764090
  logFC(D142_ DFO - D142_BAS) AK3L1: 2,74
ProbeID ILMN_1765557
  logFC(D142_ DFO - D142_BAS) OLFML2B: -3,16
ProbeID ILMN_1765701
  logFC(D142_ DFO - D142_BAS) LOC399942: -2,67
ProbeID ILMN_1765796
  logFC(D142_ DFO - D142_BAS) ENO2: 4,08
